Assay results reported in patent US11415513B2, “Method for determining the degree of sensitivity of a strain of fungus to an antifungal agent” (UNIVERSITE GRENOBLE ALPES, priority 2015, dated 2022).
Converted amounts (≈) assume the structure as drawn. Read-outs that look alike come from different tables or passages of the source. Starred links: 1 amine or outer side, 2 acyl side, 3 side chain; linkers in the order of their positions; H or OH if unused. Positions of bridges follow the written chain, without caps; N, C: chain ends. Non-standard residues stand in square brackets, D forms with d. Residues, ends and D or L forms follow the SMILES beside them. *: point of attachment. hTyr(3S-OH,4S-OH,3'-OSO3H) = N[C@H](C(=O)O)[C@H](O)[C@@H](O)c1ccc(O)c(OS(=O)(=O)O)c1; Orn(4R-OH,5R-OH) = O=C([C@H](C[C@@H](O)[C@@H](O)N[*:3])N[*:1])[*:2]; Pro(3S-OH,4S-Me) = C[C@H]1CN[C@H](C(=O)O)[C@H]1O; X1 = CCCCCOc1ccc(-c2cc(-c3ccc(C(=O)*)cc3)no2)cc1; Gln(3R-OH) = NC(=O)C[C@@H](O)[C@H](N)C(=O)O; Hyp = O=C(O)[C@@H]1C[C@@H](O)CN1

Columns and labels:
[1] = system: strain ATCC®7349 of C. tropicalis; assay: Sensitivity test by HCA microscopy (chitin level, Calcofluor White; cell count); format: cell-based, Candida tropicalis; conditions: SC medium; for decrease of the number of cells / increase of the chitin level in the wall of the cells: vs cells in the absence of antifungal agent; for increase of the chitin level in the wall of the cells: concentration gradient of Table 1
Protocol: (§1) The strains of Candida were incubated beforehand at 30° C. overnight in a yeast extract medium—peptone dextrose (YPD) (1% bacto peptone, 0.5% yeast extract, 2% glucose, 1.5% agar).
(§2) Yeast colonies were then removed from YPD medium plates and suspended in a 0.9% NaCl saline solution, in which the cell concentration was estimated by optical microscopy using Kova counting slides.
(§3) A dilution was performed to obtain 15 ml of an inoculum at 3×10^6 CFU/ml, in a synthetic complete (SC) medium at pH 7 (2% glucose, 0.5% ammonium sulfate, 0.17% nitrogen-containing yeast base, 0.2% synthetic complete mixture, and 10% HEPES 1.5M pH 7.2) for C. albicans, C. parapsilosis, C. tropicalis and C. krusei, and in a solution of RPMI 1640 pH 7.3 (10% HEPES 1M pH 7.2) for C. glabrata, so as to reduce the formation of septa and clusters.
(§4) 1 ml of inoculum was then added to 2 ml of antifungal solution prepared in an SC or RPMI medium depending on the species of fungus, so as to obtain a final concentration of yeast of 10^6 CFU/ml and the desired concentration of antifungal agent according to table 1.
(§5) After homogenisation, the cultures were placed at 30° C. at 200 rpm, with the exception of cultures of C. glabrata, which were placed at 35° C. at 200 rpm, and incubated for a period of 6.5 h or 24 h.
(§6) After incubation, 100 μl of the culture of fungi obtained above were transferred in triplicate to 96-well plates, and 2.5 μl of Calcofluor White (CFW) were added to each well so as to mark the chitin of the cell walls of the yeasts.
(§7) A step of acquiring images by automated fluorescence microscopy (ScanR screening station, Olympus), using a 40× lens and a CFW filter, made it possible to obtain 30 images per well so as to capture enough cells to provide statistically significant data. These images were analysed by software (ScanR analysis software, Olympus). Firstly, the background noise was processed so as to improve the contrast between the fluorescence of the yeasts and background noise. A pixel threshold was then defined. Segmentation of the fluorescent elements present in each of the acquired images was then performed using an algorithm predefined in the software, making it possible to determine the limit of each element on the basis of the fluorescence intensity of said element. A size parameter was then applied to select the yeasts and eliminate the aggregates and the fluorescent debris.
(§8) Each element then corresponding to a yeast, it was thus possible, on the basis of these elements predefined beforehand, to define the fluorescence intensity for each of the yeasts, this intensity being directly correlated with the chitin content of their wall.
(§9) On the basis of said defined elements, it was also possible to automatically count the yeasts,
The strain ATCC®7349 of C. tropicalis was cultivated as described in paragraph I of the Examples section so as to obtain an inoculum at 3×10^6 CFU/ml in 15 ml of SC medium.
(§10) 2 ml of fluconazole solution prepared in the SC medium were then added to 1 ml of this inoculum so as to obtain a final concentration of yeast of 10^6 CFU/ml and of 16 μg/ml in fluconazole.
(§11) The inoculum was treated in the same way so as to obtain cultures of 10^6 CFU/ml and the following concentrations of fluconazole: 0.015 μg/ml, 0.031 μg/ml, 0.062 μg/ml, 0.125 μg/ml, 0.25 μg/ml, 0.5 μg/ml, 1 μg/ml, 2 μg/ml, 4 μg/ml, 8 μg/ml, 16 μg/ml.
After incubation for 24 h at 30° C. with stirring at 200 rpm, 100 μl of each culture were removed and transferred to 96-well plates. This procedure was performed in triplicate, and 2.5 μl of CFW were then added to each well.
(§12) The chitin level in the cell wall of the yeasts was then measured by […] analysis (HCA) microscopy, as described in paragraph II of the Examples section, in triplicate for each condition of concentration of fluconazole and without fluconazole. […]

[2] = system: strain ATCC®7349 of C. tropicalis; assay: Etest method (MIC); format: cell-based, Candida tropicalis; conditions: for MIC: Candida tropicalis, read-out: MIC (Etest method)
Protocol: (§13) The Etest® method is a commercial test for determining the sensitivity of a strain, most frequently used routinely in clinical mycology laboratories.
(§14) The Etest® tests were performed according to the manufacturer's instructions. After distributing a standardised Mac Farland 0.5 inoculum (equivalent of […]) over plates of RPMI medium, said plates were incubated for 24 h at 35° C., with the exception of C. glabrata in which case the incubation was extended to 48 h so as to be able to determine the minimum inhibitory concentration (MIC).
(§15) The results of the MICs obtained were interpreted in accordance with the tables of the CLSI (Clinical and Laboratory Standards Institute) and/or of EUCAST (European Committee on Antimicrobial Susceptibility Testing) (Arendrup M C, Cuenca-Estrella M, Lass-Flörl C, Hope W W (2014) Breakpoints for antifungal agents: an update from EUCAST focussing on echinocandins against Candida spp and triazoles against Aspergillus spp. Drug Resist Updat 16(6):81-95. doi:10.1016/j.drup.2014.01.001) (cf. Table 2 taken from Maubon D, Garnaud C, Calandra T, et al. (2014) Resistance of Candida spp. to antifungal drugs in the ICU: where are we now? Intensive Care Med. doi: 10.1007/s00134-014-3404-7) which list the clinical thresholds (CBPs) for the most common species of yeast of the genus Candida as a function of different antifungal agents, or according to the table of epidemiological thresholds (ECVs).

[3] = system: strain ATCC®22019 of C. parapsilosis; assay: Sensitivity test by HCA microscopy (chitin level, Calcofluor White; cell count); format: cell-based, Candida parapsilosis; conditions: SC medium; for decrease of the number of cells / increase of the chitin level in the wall of the cells: vs cells in the absence of antifungal agent
Protocol: as §1, §2, §3, §4, §5, §6, §7, §8, §9
The strain ATCC®22019 of C. parapsilosis was cultivated as described in paragraph I of the Examples section so as to obtain an inoculum at 3×10^6 CFU/ml in 15 ml of SC medium.
as §10, §11
After incubation for 6.5 h at 30° C. with stirring at 200 rpm, 100 μl of each culture were removed and transferred to 96-well plates. This procedure was performed in triplicate, and 2.5 μl of CFW were then added to each well.
as §12

[4] = system: strain ATCC®22019 of C. parapsilosis; assay: Etest method (MIC); format: cell-based, Candida parapsilosis; conditions: for MIC: Lodderomyces parapsilosis, read-out: MIC (Etest method)
Protocol: as §13, §14, §15

[5] = ATCC7349, RPMI medium plates, 24 h at 35° C.
[6] = RPMI medium plates, 24 h at 35° C.
[7] = 6.5 h at 30° C., concentration gradient of Table 1
[8] = ATCC22019, RPMI medium plates, 24 h at 35° C.

`OC(Cn1cncn1)(Cn1cncn1)c1ccc(F)cc1F` [fluconazole] was tested, and the “phenotype of the strain with respect to the antifungal agent (HCA)” value (shortened to “phenotype of the strain”) ([1]; 24 h at 30° C.) was “sensitive (an increase in the chitin level greater than or equal to 20% is observed compared to the chitin level of a population of cells of said fungus in the absence of antifungal agent, as well as a decrease in the number of cells of at least 0.3 log)”, the “decrease of the number of cells” value ([1]; 24 h at 30° C.) was “at least 0.3 log” and the “increase of the chitin level in the wall of the cells” value (shortened to “increase of the chitin level”) ([1]; 24 h at 30° C.) was “greater than or equal to 20%”. For the same compound, the MIC [2, 5] was 0.38 µg/mL (≈ 1.24 µM), the “phenotype by Etest MIC, interpretation by the EUCAST and/or CLSI tables” value (from here on “phenotype by Etest MIC, interpretation”) [2, 6] was “sensitive” and the “phenotype of the strain” value ([3]; 6.5 h at 30° C.) was “sensitive (an increase in the chitin level greater than or equal to 20% is observed compared to the chitin level of a population of cells of said fungus in the absence of antifungal agent, as well as a decrease in the number of cells of at least 0.3 log)”. The “decrease of the number of cells” value ([3]; 6.5 h at 30° C.) was “at least 0.3 log”, the “increase of the chitin level” value [3, 7] was “greater than or equal to 20%” and the MIC [4, 8] was 1 µg/mL (≈ 3.27 µM). For the same compound, the “phenotype by Etest MIC, interpretation” value [4, 6] was “sensitive”.
`CCCCCOc1ccc(-c2cc(-c3ccc(C(=O)N[C@H]4C[C@@H](O)[C@@H](O)NC(=O)[C@@H]5[C@@H](O)[C@@H](C)CN5C(=O)[C@H]([C@H](O)CC(N)=O)NC(=O)[C@H]([C@H](O)[C@@H](O)c5ccc(O)c(OS(=O)(=O)O)c5)NC(=O)[C@@H]5C[C@@H](O)CN5C(=O)[C@H]([C@@H](C)O)NC4=O)cc3)no2)cc1` [micafungin] (X1-[Orn(4R-OH,5R-OH)]T[Hyp][hTyr(3S-OH,4S-OH,3'-OSO3H)][Gln(3R-OH)][Pro(3S-OH,4S-Me)]; lactam 1-C) was tested, and the “phenotype of the strain” value ([1]; 6.5 h at 30° C.) was “sensitive (an increase in the chitin level greater than or equal to 20% is observed compared to the chitin level of a population of cells of said fungus in the absence of antifungal agent, as well as a decrease in the number of cells of at least 0.3 log)”, the “decrease of the number of cells” value ([1]; 6.5 h at 30° C.) was “at least 0.3 log” and the “increase of the chitin level” value ([1]; 6.5 h at 30° C.) was “greater than or equal to 20%”. The MIC ([2]; ATCC7349, 24 h) was 0.016 µg/mL (≈ 0.0126 µM), the “phenotype by Etest MIC, interpretation” value [2, 6] was “sensitive” and the “phenotype of the strain” value ([3]; 24 h at 30° C.) was “sensitive (an increase in the chitin level greater than or equal to 20% is observed compared to the chitin level of a population of cells of said fungus in the absence of antifungal agent, as well as a decrease in the number of cells of at least 0.3 log)”. For the same compound, the “decrease of the number of cells” value ([3]; 24 h at 30° C.) was “at least 0.3 log”, the “increase of the chitin level” value ([3]; 24 h at 30° C., concentration gradient up to 1 μg/ml) was “greater than or equal to 20%” and the MIC ([4]; ATCC22019, 24 h) was 0.19 µg/mL (≈ 0.15 µM). The “phenotype by Etest MIC, interpretation” value [4, 6] was “sensitive”.
For `C[C@@H](c1ncncc1F)[C@](O)(Cn1cncn1)c1ccc(F)cc1F` [voriconazole], the “phenotype of the strain” value ([1]; 6.5 h at 30° C.) was “sensitive (an increase in the chitin level greater than or equal to 20% is observed compared to the chitin level of a population of cells of said fungus in the absence of antifungal agent, as well as a decrease in the number of cells of at least 0.3 log)”, the “decrease of the number of cells” value ([1]; 6.5 h at 30° C.) was “at least 0.3 log” and the “increase of the chitin level” value ([1]; 6.5 h at 30° C.) was “greater than or equal to 20%”. The MIC [2, 5] was 0.023 µg/mL (≈ 0.0658 µM), the “phenotype by Etest MIC, interpretation” value [2, 6] was “sensitive” and the “phenotype of the strain” value ([3]; 6.5 h at 30° C.) was “sensitive (an increase in the chitin level greater than or equal to 20% is observed compared to the chitin level of a population of cells of said fungus in the absence of antifungal agent, as well as a decrease in the number of cells of at least 0.3 log)”. For the same compound, the “decrease of the number of cells” value ([3]; 6.5 h at 30° C.) was “at least 0.3 log”, the “increase of the chitin level” value [3, 7] was “greater than or equal to 20%” and the MIC [4, 8] was 0.023 µg/mL (≈ 0.0658 µM). For the same compound, the “phenotype by Etest MIC, interpretation” value [4, 6] was “sensitive”.
